From patent US8183364B2, “Substituted porphyrins” (Duke University, priority 2004, dated 2012)
Like-named read-outs stand apart in the source and are kept apart here. Blank lines part the entries; values can stand above or below the molecule they belong to.

Tests used:
[1] = Oxidative degradation in the presence of ascorbic acid under aerobic conditions; assay type: physicochemical; details: pH 7.8 (0.05 M tris buffer)
Experimental: Under these conditions porphyrins underwent oxidative degradation. As previously observed (Batinic-Haberle et al, J. Chem. Soc., Dalton Trans., pgs. 2689-2696 (2002)), those porphyrins that are of more positive E1/2 are stabilized in +2 oxidation state and are less prone to oxidative damage. Accordingly, 27% and 24% of MnTE-2-PyP^5+ and MnTMOE-2-PyP^5+ undergo degradation within 2 hours, but only 2% of MnTM,MOE-2-ImP^5+ and MnTDMOE-2-ImP^5+ and 3% of MnTDE-2-ImP^5+.

[2] = Catalysis of O2.^− dismutation by pulse radiolysis; assay type: biochemical; details: pulse radiolysis, pH 7.8, (22 ± 1) °C; kcat ±30%
Experimental: Catalysis of O2.^− dismutation. The catalytic rate constants for the O2.^− dismutation were determined by pulse radiolysis in 0.05 M phosphate buffer (pH 7.8) at (22±1)° C. as previously described (Batinic-Haberle et al, Inorg. Chem. 40:726 (2001)). In the present study 10 mM formate was used as a scavenger for H. atoms and .OH radicals, which leads first to production of CO2.^− radicals and then to O2.^− radicals. This system is known to lead to conversion of all primary radicals of water radiolysis into O2.^−.
Catalysis of O2.^− dismutation. Pulse radiolysis was used to assess the SOD-like activities of the Mn porphyrins studied. The initial concentration of O2.^− produced by the pulse was about 27 μM, and the concentration of the Mn porphyrin was between 0.5 and 5 μM. The dismutation of O2.^− was followed at 280 nm. The catalytic rate constant was determined from the linear dependence of kobs upon the concentration of the catalyst (Batinic-Haberle et al, Inorg. Chem. 40:726 (2001)). All the new compounds have high O2.^− dismuting ability. The magnitude of the catalysis is due to the interplay of the electron-withdrawing effects of quaternized ortho pyridyl or di-ortho imidazolyl groups, favorable electrostatics, and the solvation of the metal site.

[3] = Electrochemistry: cyclic voltammetry of the Mn(III)/Mn(II) redox couple; assay type: physicochemical
Experimental: Electrochemistry. Measurements were performed on a CH Instruments Model 600 Voltammetric Analyzer (Spasojevic and Batinic-Haberle, Inorg. Chim. Acta. 317:230-242 (2001), Batinic-Haberle et al, J. Biol. Chem. 273:24521-24528 (1998), Batinic-Haberle et al, Inorg. Chem. 38:4011-4022 (1999)). A three-electrode system in a small volume cell (0.5 mL to 3 mL), with a 3 mm-diameter glassy carbon button working electrode (Bioanalytical Systems), plus the Ag/AgCl reference and Pt auxiliary electrodes was used. Argon-purged solutions contained 0.05 M phosphate buffer, pH 7.8, 0.1 M NaCl, and 0.5 mM metalloporphyrin. The scan rates were 0.01-0.5 V/s, typically 0.1 V/s. The potentials were standardized against the potassium ferrocyanide/ferricyanide (Kolthof and Tomsicek, J. Phys. Chem. 39:945 (1935)) and/or against MnTE-2-PyP^5+ (Spasojevic and Batinic-Haberle, Inorg. Chim. Acta. 317:230-242 (2001), Batinic-Haberle et al, J. Biol. Chem. 273:24521-24528 (1998), Batinic-Haberle et al, Inorg. Chem. 38:4011-4022 (1999)).
Electrochemistry. All cyclic voltammograms, ascribed to the Mn(III)/Mn(II) redox couple, are reversible. The E1/2 of di-ortho ethylimidazolylporphyrin, MnTDE-2-ImP^5+ is 118 mV more positive than of ortho ethylpyridylporphyrin, MnTE-2-PyP^5+ (+228 mV vs NHE), as a consequence of charge delocalization. A similar difference of 114 mV was seen between their methoxyethyl analogues. Mn porphyrins bearing N-pyridyl substituents of the same length, MnTnBu-PyP^5+ and MnTMOE-2-PyP^5+, have nearly identical E1/2 of +254 and +251 mV vs NHE, which is 26 and 23 mV higher than that of MnTE-PyP^5+.

[4] = Thin-layer chromatography on silica gel (retention factor Rf, lipophilicity); assay type: physicochemical; details: silica gel TLC, KNO3-saturated H2O/H2O/acetonitrile = 1/1/8
Experimental: Uv/vis spectra of porphyrin ligands and their Mn complexes were taken on a Shimadzu UV-2501-PC spectrophotometer at 25° C. Thin-layer chromatography of ligands and Mn complexes was done using silica gel plates with KNO3satH2O/H2O/acetonitrile=1/1/8.
Thin-layer chromatography. All new methoxyporphyrins are more lipophilic than MnTE-2-PyP^5+ and MnTDE-2-ImP^5+.

[5] = system: SOD-deficient JI132 E. coli; experiment: Aerobic growth of SOD-deficient E. coli; assay type: cell-based; details: for facilitation of aerobic growth of SOD-deficient E. coli, dependence on concentration: 1-30 μM
Experimental: (§1) Aerobic growth of E. coli. Bacterial strains of E. coli used were wild type AB1157 (F-thr-1 leu-1 proA2 his-4 argE3 thr-1 lacY1 galK2 rpsL supE44 ara-14 xyl-15 mtl-1 tsx-33) and SOD-deficient JI132 (same as AB1157 plus (sodA::mudPR13)25 (sodB-kan)1-Δ2. Culture media were prepared as follows. M9 medium: 6 g/L Na2HPO4, 3 g/L KH2PO4, 0.5 g/L NaCl, 1 g/L NH4Cl, 2 mM MgSO4, 0.1 mM CaCl2, adjusted to pH 7.4 with NaOH, and supplemented with 0.2% glucose, 3 mg/L each of D-panthotenic acid and thiamine. M9CA medium contained M9 medium plus 0.2% casamino acids. 5-amino acid (5AA) minimal medium contained M9 medium plus 0.5 mM each of threonine, leucine, histidine, proline and arginine (Faulkner et al, J. Biocl. Chem. 269:23471 (1994)).
(§2) AB 1157 and 31132 were precultured overnight aerobically in M9CA medium at 37° C. and were then diluted to 3×10^7 cells/mL into 5 mL M9CA medium. JI132 was precultured in the presence of 20 μg/mL chloramphenicol and 500 μg/mL kanamycin. When the cells are transferred from M9CA medium to 5AA minimal medium cultures were first centrifuged and washed twice with the 5AA medium before final dilution in it. The centrifugation was conducted at room temperature to avoid temperature shocks. Cultures without and with Mn porphyrins (0.1 to 30 μM) were grown aerobically in 5 mL volume in test tubes in a thermostated orbital shaker (45° angle, 200 rpm) at 37° C.). Rates of growth were followed turbidimetrically at 700 nm to minimize interference from the absorbance of test compounds.

[6] = pH 7.8, (22 ± 1) °C; data from Batinic-Haberle et al 2002 (MnTE-2-PyP: Inorg. Chem. 40:726 (2001)); cited from earlier work
wild type AB1157 E. coli = experiment: Aerobic growth of wild type E. coli (toxicity); assay type: cell-based
Experimental: as §1, §2

[7] = data from Batinic-Haberle et al 2002, cited from earlier work; for Rf (compound path/solvent path), metal-free porphyrin (in parenthesis): metal-free ligand of the named Mn porphyrin; for Rf (compound path/solvent path), Mn complex: silica gel TLC, KNO3-saturated H2O/H2O/acetonitrile = 1/1/8
[8] = Mn(III)/Mn(II); 0.1 M NaCl, 0.05 M phosphate buffer, pH 7.8; data from Batinic-Haberle et al 2002; cited from earlier work
[9] = Kinetic salt effect on O2.^− dismutation by cytochrome c assay; assay type: biochemical
Experimental: Kinetic salt effect. The dependence of the catalytic rate constant for the O2.^− dismutation upon ionic strength was determined by cytochrome c assay (McCord and Fridovich, J. Biol. Chem. 244:6049 (1969)) in 0.05 M phosphate buffer, pH 7.8 with NaCl ranging from 0 to 0.4 M. In doing this, the effect of ionic strength on the rate of the O2.^−/cytochrome c reaction was corrected for.
Kinetic salt effect. The effect of the ionic strength (μ) on the catalytic rate constant was assessed using eq which is based on Debye-Huckel relation (Hambright et al, J. Porphyrins Phthalocyanines 7:139-146 (2003)) for the effect of the ionic strength of the solution on the activity coefficient of an ion. log k=log kref+2AzAzBμ^1/2/(1+μ^1/2) The k is the rate constant at any given ionic strength, while kref is the rate constant at μ=0. The A is a collection of physical constants with a value of 0.509 and zA and zB are the charges of the reacting species. The equation predicts a linear plot of log k vs μ^1/2/(1+μ^1/2). Eq assumes a coefficient of 1.0 (βai) for μ^1/2 in the denominator, i.e., the distance of the closest approach, ai to be 3 A and β is a physical constant, […]. It is doubtful whether great significance can be attributed to the ai, thus to the product zAzB (Hambright et al, J. Porphyrins Phthalocyanines 7:139-146 (2003)), especially so in the light of the bulkiness, high charge and solvation shell of the metalloporphyrins. Accounting for the mono- and diprotonated phosphates as the major species at pH 7.8 (pKa=7.2), and the concentration of the NaCl, the ionic strength was calculated using equation μ=½ Σ mizi^2 where mi is the molality and zi the charge of the given ion.
The slopes of the plots are −6.48 (MnTE-2-PyP^5+), −7.02 (MnTMOE-2-PyP^5+), −7.38 (MnTDMOE-2-ImP^5+), and −4.15 (MnTnBu-2-PyP^5+). As expected (Hambright et al, J. Porphyrins Phthalocyanines 7:139-146 (2003)), when the reactants are ions of opposite charges, the higher the ionic strength of the solution the lower the rate constants, i.e. the slopes are negative. The slopes of the plots indicate clearly the impact of the local dielectric constant on the kcat. The kcat of the most lipophilic compound, MnTnBu-2-PyP^5+ is 40% less sensitive to the changes in ionic strength of the solution than is the kcat of its methoxyethyl analogue, MnTMOE-2-PyP^5+.

degradation within 2 hours [1]: 2%
Metal-centered redox potential E1/2 ([3]; Mn(III)/Mn(II), 0.1 M NaCl, 0.05 M phosphate buffer, pH 7.8, ±3 mV): +356 mV vs NHE
Rf (compound path/solvent path), metal-free porphyrin (in parenthesis) ([4]; metal-free ligand of the named Mn porphyrin): 0.17
Rf (compound path/solvent path), Mn complex [4]: 0.15
SMILES: COCCn1cc[n+](C)c1-c1c2nc(c(-c3n(CCOC)cc[n+]3C)c3ccc([n-]3)c(-c3n(CCOC)cc[n+]3C)c3nc(c(-c4n(CCOC)cc[n+]4C)c4ccc1[n-]4)C=C3)C=C2.[Mn+3] [MnTM,MOE-2-ImP^5+, Mn(III) tetrakis 5,10,15,20-tetrakis[N-methyl-N′-(2-methoxyethyl)imidazolium-2-yl]porphyrin]
log kcat for O2^− dismutation [2]: 7.98

SMILES: CCCC[n+]1ccccc1-c1c2nc(c(-c3cccc[n+]3CCCC)c3ccc([n-]3)c(-c3cccc[n+]3CCCC)c3nc(c(-c4cccc[n+]4CCCC)c4ccc1[n-]4)C=C3)C=C2.[Mn+3] [MnTnBu-2-PyP^5+]
aerobic growth of SOD-deficient E. coli ([5]; 5AA minimal medium, 3 μM): nearly as effective
aerobic growth of SOD-deficient E. coli ([5]; M9CA medium, 1 and 3 μM): less effective
aerobic growth of SOD-deficient E. coli ([5]; M9CA medium, 10 and 30 μM): most effective
log kcat for O2^− dismutation [6]: 7.25
toxicity to wild type E. coli (wild type AB1157 E. coli; M9CA medium, 30 μM (up to 30 μM)): only marginal toxicity
concentration at which toxicity on the parental (wild type) strain is exerted / becomes observable (wild type AB1157 E. coli; M9CA medium, range 0.1 to 30 μM): 30 µM
Rf (compound path/solvent path), metal-free porphyrin (in parenthesis) [7]: 0.46
Rf (compound path/solvent path), Mn complex [7]: 0.33
E1/2 more positive / higher than that of MnTE-2-PyP^5+ ([3]; difference vs MnTE-2-PyP^5+ (+228 mV vs NHE)): 26 mV
Metal-centered redox potential E1/2 [8]: +254 mV vs NHE
slope of log kcat vs μ^1/2/(1+μ^1/2) ([9]; 0.05 M phosphate buffer, pH 7.8, 0-0.4 M NaCl): −4.15
kcat less sensitive to changes in ionic strength than MnTMOE-2-PyP^5+ ([9]; vs MnTMOE-2-PyP^5+): 40%

SMILES: C[n+]1ccccc1-c1c2nc(c(-c3cccc[n+]3C)c3ccc([n-]3)c(-c3cccc[n+]3C)c3nc(c(-c4cccc[n+]4C)c4ccc1[n-]4)C=C3)C=C2.[Mn+3] [MnTM-2-PyP^5+]
aerobic growth of SOD-deficient E. coli ([5]; 5AA minimal medium, 25 μM): not far behind
protection of SOD-deficient E. coli ([5]; M9CA medium, 1 μM): low protection
protection of SOD-deficient E. coli ([5]; M9CA medium, 30 μM): either much higher or near full protection
facilitation of aerobic growth of SOD-deficient E. coli, dependence on concentration ([5]; M9CA medium): concentration-dependent manner
log kcat for O2^− dismutation [6]: 7.79
Rf (compound path/solvent path), metal-free porphyrin (in parenthesis) [7]: 0.13
Rf (compound path/solvent path), Mn complex [7]: 0.09
Metal-centered redox potential E1/2 [8]: +220 mV vs NHE

SMILES: CCCCCCCC[n+]1ccccc1-c1c2nc(c(-c3cccc[n+]3CCCCCCCC)c3ccc([nH]3)c(-c3cccc[n+]3CCCCCCCC)c3nc(c(-c4cccc[n+]4CCCCCCCC)c4ccc1[nH]4)C=C3)C=C2 [metal-free n-octyl]
toxicity of metal-free vs Mn(III) complex (wild type AB1157 E. coli; separate experiment): equally toxic

SMILES: CCC[n+]1ccccc1-c1c2nc(c(-c3cccc[n+]3CCC)c3ccc([n-]3)c(-c3cccc[n+]3CCC)c3nc(c(-c4cccc[n+]4CCC)c4ccc1[n-]4)C=C3)C=C2.[Mn+3] [MnTnPr-2-PyP^5+]
aerobic growth of SOD-deficient E. coli ([5]; 5AA minimal medium, 25 μM): most effective
protection of SOD-deficient E. coli ([5]; M9CA medium, 1 μM): low protection
protection of SOD-deficient E. coli ([5]; M9CA medium, 30 μM): either much higher or near full protection
facilitation of aerobic growth of SOD-deficient E. coli, dependence on concentration ([5]; M9CA medium): concentration-dependent manner
log kcat for O2^− dismutation [6]: 7.38
Rf (compound path/solvent path), metal-free porphyrin (in parenthesis) [7]: 0.31
Rf (compound path/solvent path), Mn complex [7]: 0.20
Metal-centered redox potential E1/2 [8]: +238 mV vs NHE
